The source of these data is patent publication US8815881B2 (Hoffmann-La Roche Inc., priority 2010, dated 2014).

This test concerns the target BACE2 enzyme ectodomain (Homo sapiens (Human), UniProt Q9Y5Z0). The test is described as follows: Fluorescent-peptide cleavage assay for BACE2 inhibition. Type of test: biochemical. Conditions: assay b): fluorescent-peptide cleavage, pH 4.5 (superscript b). The protocol:
b) Fluorescent-Peptide Cleavage Assay for BACE2 Inhibition
BACE2 enzyme ectodomain (derived from plasmid “pET17b-T7-hu proBACE2”) was prepared as described in Ostermann et al., “Crystal Structure of Human BACE2 in Complex with a Hydroxyethylamine Transition-state Inhibitor”, Journal of Molecular Biology 2006, 355, 249-261. The pro-enzyme was stored at 4° C. at a concentration of 70 μg/ml.
A fluorescent peptide with the amino acid sequence WS EVNLD AEFRC-MR121 was synthesised and a stock solution of 1.5 mM in DMSO prepared and stored at −20° C. MR121 is a fluorophore with an excitation wavelength of 630 nm and emission wavelength of 695 nm. The MR121 fluorescence is quenched by the N-terminal tryptophan until the peptide is cleaved by BACE2.
Assays were all made in a Corning 384-well black polystyrene non-binding surface microtitre plate with clear flat bottom and using a Plate:Vision (Perkin Elmer) fluorescence reader. To perform the assay an 80 nM solution of BACE2 was prepared in assay buffer (assay buffer is 100 mM Na-acetate; 20 mM EDTA; 0.05% BSA; pH 4.5) and incubated at room temperature for 1 hour to activate the enzyme. 39 μl of the activated BACE2 was placed in each assay well, followed by 1 μl compound to be tested at an appropriate concentration in 100% DMSO. The plate was then mixed and incubated for 10 minutes at room temperature. To start the assay, 10 μl of a 1.5 μM solution fluorescent peptide in assay buffer was added and the fluorescence intensity in the assay mixture measured at 695 nm with an excitation wavelength of 630 nm for 30 minutes.
The assay readout is the rate of change of fluorescence intensity giving a relative measure of BACE2 activity. Small values correspond to high inhibition and larger values to low inhibition. To determine IC50 values (i.e. the concentration inhibiting the enzyme activity by 50%) of the compound for BACE2, typically, 15 assays were made with a range of concentrations chosen empirically to give low, high and intermediate inhibition of the protease. IC50 values were determined using these assay values generated for a range of inhibitor concentrations and the curve fitting software XLfit (IDBS) using the Sigmoidal Dose-Response Model.

Sequence of BACE2 enzyme ectodomain (Q9Y5Z0 63-473): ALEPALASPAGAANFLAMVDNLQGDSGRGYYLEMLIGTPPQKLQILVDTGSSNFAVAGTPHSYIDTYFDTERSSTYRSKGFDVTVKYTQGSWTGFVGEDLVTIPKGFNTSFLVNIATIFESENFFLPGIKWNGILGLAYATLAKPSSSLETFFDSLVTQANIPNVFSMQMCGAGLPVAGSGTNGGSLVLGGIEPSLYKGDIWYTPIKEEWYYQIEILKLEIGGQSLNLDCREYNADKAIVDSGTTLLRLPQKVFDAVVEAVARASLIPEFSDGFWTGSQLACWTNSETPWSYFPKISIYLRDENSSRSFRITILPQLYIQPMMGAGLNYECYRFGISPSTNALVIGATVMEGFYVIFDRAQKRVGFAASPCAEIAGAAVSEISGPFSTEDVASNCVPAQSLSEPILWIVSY

Compound `CN1C(=O)C(C)(C)[C@@](C)(c2cc(Nc3ccc(S(C)(=O)=O)cc3)ccc2F)N=C1N` [Example 164, (S)-2-Amino-6-(2-fluoro-5-(4-(methylsulfonyl)phenylamino)phenyl)-3,5,5,6-tetramethyl-5,6-dihydropyrimidin-4(3H)-one] showed an IC50 of 1090 nM.
The compound `CN1C(=O)C(C)(C)[C@@](C)(c2cc(Nc3cc(F)c(C#N)cc3F)ccc2F)N=C1N` [Example 166, (S)-4-(3-(2-Amino-1,4,5,5-tetramethyl-6-oxo-1,4,5,6-tetrahydropyrimidin-4-yl)-4-fluorophenylamino)-2,5-difluorobenzonitrile] gave an IC50 of 80 nM.
The compound `CN1C(=O)C(C)(C)[C@@](C)(c2cc(Nc3ccc(Cl)nc3)ccc2F)N=C1N` [Example 176, (S)-2-Amino-6-(5-(6-chloropyridin-3-ylamino)-2-fluorophenyl)-3,5,5,6-tetramethyl-5,6-dihydropyrimidin-4(3H)-one] displayed an IC50 of 130 nM.
Next, `CN1C(=O)C(C)(C)[C@@](C)(c2cc(NC3CCCC3C#N)ccc2F)N=C1N` (stereo partly drawn) [Example 162, 2-[3-((S)-2-Amino-1,4,5,5-tetramethyl-6-oxo-1,4,5,6-tetrahydro-pyrimidin-4-yl)-4-fluoro-phenylamino]-cyclopentanecarbonitrile]: 120 nM; `CN1C(=O)C(C)(C)[C@@](C)(c2cc(Nc3cncc(C(F)(F)F)c3)ccc2F)N=C1N` [Example 175, (S)-2-Amino-6-(2-fluoro-5-(5-(trifluoromethyl)pyridin-3-ylamino)phenyl)-3,5,5,6-tetramethyl-5,6-dihydropyrimidin-4(3H)-one]: 250 nM.
